Tests used:
[1] = system: IFNγ producing cells specific for peptide p1073 from hepatitis C NS3 protein; experiment: ELISPOT of IFNγ producing cells specific for peptide 1073 after immunization; type: in vivo; details: 5 nmoles peptide with poly I:C, seven days after immunization
Method: For the analysis of IFNγ-producing cells specific for […] and induced in vivo by the immunizations, ELISPOT experiments were carried out using a BD-pharmingen kit (San Diego, Calif.) and according to the instructions of the manufacturer. Briefly, the plates (Multiscreen HTS, Millipore, Bedford, Mass.) incubated overnight with the anti-IFNγ antibody were blocked for 2 hours with HL-1 medium (Biowhittaker, Verviers, Belgium) containing 10% horse serum. Thus, 5×10^5 splenocytes were incubated in triplicate in the absence or in the presence of the antigens at 37° C. and 5% CO2. On the following day, the plates were washed with PBS and incubated with biotinylated anti-IFNγ antibody (2 mg/ml). After two hours, the plates were washed and incubated with a 1/100 dilution of streptavidin-peroxidase. One hour later, the wells were washed and developed using the AEC substrate set (BD-Pharmingen). The colorimetric reaction was stopped with distilled water and the number of spots was quantified using an ELISPOT automatic reader (CTL, Aalen, Germany).
(§1) Thus the peptides αMod-1073, γMod-1073 and δMod-1073 as well as the peptide p1073 alone were synthesized. HELD transgenic mice (which express the human HLA_A2 molecule) were immunized with 5 nmoles of the corresponding peptide in the presence of poly I:C. Seven days after immunization, ELISPOT and in vivo killing assays were carried out as described above using target cells pulsed with peptide 1073.

[2] = system: target cells pulsed with peptide 1073; experiment: In vivo killing assay using target cells pulsed with peptide 1073; details: 5 nmoles peptide with poly I:C, seven days after immunization
Method: C57BL6 mice were intravenously immunized intravenously with 5 nmoles of the indicated peptides in combination with 50 μg of the TLR3 ligand poly I:C. In some cases, the peptides were immunized in the presence of TLR2 (peptidoglycan), TLR4 (LPS or the EDA protein) or TLR9 (CpG) ligand. […] On the following day, the mice were sacrificed and the splenocytes were analyzed by flow cytometry to quantify the number of cells with high CFSE labeling with respect to the cells with low CFSE labeling. Thus, the percentage of cell lysis of the cells incubated with the cytotoxic […] peptide can be calculated in an experiment called in vivo killing.
as §1

[3] = system: dendritic cells derived from bone marrow; experiment: Upregulation of maturation markers on dendritic cells (flow cytometry); type: cell-based, mouse; details: 50 μM peptide, 48 hours
Method: (§2) Dendritic cells were grown from bone marrow cells. […] The remaining cells grew in 12 culture plates in complete medium with 10^6 cells/ml supplemented with 20 ng/ml of mGM-CSF and 20 ng/ml of mIL-4 (both from Peprotech; London, GB). Every 2 days the medium was substituted with fresh medium containing cytokines. On day 7, non-adherent dendritic cells were collected, and cultured in the presence or absence of 50 μM of modulin peptides or of 1 μg/ml of LPS (Sigma) and incubated for 48 hours at 37° C. and 5% CO2. After this period, the cells were isolated and incubated with anti IAb, CD54 and CD86 antibodies (Pharmingen). In parallel experiments, the dendritic cells were incubated with the indicated stimuli for 16 hours, after which the expression of the messenger RNA for the p40 molecules of IL-12 and of TNF-α was analyzed.
Expression of DC maturation markers was measured by flow cytometry. DC were harvested and pre-incubated with a rat anti-CD16/32 mAb (2.4G2 clone, BD Pharmingen) for 15 min, to block non-specific binding of primary antibodies. After this initial incubation, cells were stained with the primary antibodies at 4° C. for 15 min, washed and acquired on FACSscan cytometer (BD Biosciences, San Diego, Calif.) and analyzed using Cell Quest software (BD Biosciences).

[4] = system: dendritic cells derived from bone marrow; experiment: Expression of messenger RNA for IL-12 p40 and TNFα in dendritic cells (real-time PCR); type: cell-based, mouse; details: 50 μM peptide, 16 hours, versus culture medium alone, p<0.05
Method: as §2
The total RNA of dendritic cells incubated for 16 hours with the different stimuli indicated above were extracted using the Nucleic Acid Purification Lysis Solution (Applied BioSystems, Foster City, Calif.) and the ABI PRISM 6100 Nucleic Acid PrepStation (Applied BioSystems) semiautomatic system.

[5] = system: TC-1 tumor cells (expressing the E7 protein of the HPV-16 virus); experiment: Treatment of mice carrying TC1 subcutaneous tumors; type: in vivo, C57B/6 mice; details: TC1 tumors of 8 mm diameter, i.v. peptide plus 50 μg/ml poly I:C, second immunization seven days later
Method: The C57B/6 mice were subcutaneously injected with 5×10^5 TC-1 tumor cells (expressing the E7 protein of the HPV-16 virus). After 25 days, when the tumor reaches a diameter of 8 mm, the mice are intravenously treated with PBS (B), with peptide E7(49-57) plus 50 μg/ml poly I:C(C), or with peptide αMod-E7(49-57) plus 50 μg/ml poly I:C (D). Seven days later, the mice received a second immunization of the same immunogens. The tumor size, presented as the average of two perpendicular diameters, was measured at regular intervals using a gauge. The number of tumor-free mice relative to the total number of animals per group is included for each treatment.

[6] = system: T cells from OT-1 transgenic mice; experiment: Antigen presentation assay: proliferation of OT-1 T cells (tritiated thymidine); type: cell-based, mouse; details: dendritic cells incubated with 10 μM peptide
Method: Dendritic cells derived from bone marrow were cultured in the presence or absence of 10 μM of the indicated peptides (FIG. 3). Forty hours later, the cells were washed and distributed in 96-well plates at different concentrations and incubated in the presence of 10^5 T cells/well obtained from OT-1 transgenic mice (which express a specific T receptor for the SIINFEKL peptide of ovalbumin. Seventy-two hours later, tritiated thymidine was added to the cultures and six hours later the cells were harvested and the incorporated thymidine was analyzed in a scintillation counter (Topcount Packard).

[7] = system: splenocytes pulsed with the SIINFEKL peptide; experiment: In vivo killing assay against SIINFEKL-pulsed splenocytes after immunization; design: species or system C57BL/6 mice; details: 5 nmoles peptide plus 50 μg poly I:C
Method: C57BL6 mice were intravenously immunized intravenously with 5 nmoles of the indicated peptides in combination with 50 μg of the TLR3 ligand poly I:C. In some cases, the peptides were immunized in the presence of TLR2 (peptidoglycan), TLR4 (LPS or the EDA protein) or TLR9 (CpG) ligand. […] On the following day, the mice were sacrificed and the splenocytes were analyzed by flow cytometry to quantify the number of cells with high CFSE labeling with respect to the cells with low CFSE labeling. Thus, the percentage of cell lysis of the cells incubated with the cytotoxic SIINFEKL peptide can be calculated in an experiment called in vivo killing.
C57BL6 wild type mice and knockout mice were immunized for TLR2 with the aim of studying the dependence on TLR2 in the immunostimulating capacity of modulin-derived peptides. Thus, different mice were injected with 5 nmoles of the indicated peptides or with PBS in combination with 50 μg of the TLR3 ligand poly I:C. […] On the following day, the mice were sacrificed and the splenocytes were analyzed by flow cytometry to quantify the number of cells with high CFSE labeling with respect to the cells with low CFSE labeling in the same manner as in Example 3.

mouse splenocytes = experiment: Binding of CFSE labeled peptides to glutaraldehyde-fixed splenocytes (flow cytometry); type: cell-based; details: unlabeled competitor 100 μM, 20 μM CFSE γMod-SIINFEKL
Method: Binding assays were carried out using either splenocytes (FIG. 1, panels A B, D, E and G) or bone marrow derived dendritic cells (FIG. 1, panels C and F). The cells were fixed by means of an incubation with a 0.4% glutaraldehyde solution for 15 minutes at 4° C. 5×10^5 fixed cells were incubated in the presence of 20 μM CFSE αMod-[sequence] (FIG. 1, panels A, B and C), or CFSE γMod-[sequence] (FIG. 1, panels D, E, F and G). In some assays, and to study the specificity of CFSE labeled peptide binding, these incubations were carried out in the presence or absence of the unlabeled peptides αMod-[sequence], γMod-[sequence] or [sequence] (100 μM) (panels B and E). Also, we carried out binding assays using the CFSE labeled peptide CFSE-OVA (235-264) as a negative control (FIG. 1, panels A, C, D and F). After 30 minutes of incubation at 4° C., two washings with PBS were carried out and the performed labeling was analyzed by flow cytometry. In some experiments (FIG. 1G), double staining was carried out using anti-CD4, CD8, CD11c, CD19, F480 or GR1(CD117) antibodies labeled with phycoerythrin (Pharmingen) together with the CFSE-γMod-[sequence] peptide. In these cases, the labeling with the specific antibodies was carried out before fixing the cells with glutaraldehyde.

EG7OVA tumor cells [8] = experiment: Treatment of mice bearing established EG7OVA tumors; type: in vivo, C57BL/6 mice; details: EG7OVA tumors of 5 mm diameter at treatment, peptide plus poly I:C, p<0.05
Method: (§3) Protection against the challenge with EG7 tumor cells expressing the OVA protein C57BL6 mice were subcutaneously immunized with 5 nmol of the indicated peptides in combination with poly I:C. Seven days after the immunization, the mice were subcutaneously injected with 5×10^5 or with 5×10^7 EG7OVA cells. In some experiments, mice were first challenged s.c with 5×10^5 cells and when tumors reached 5 mm in diameter they were treated with the indicated peptide. The tumor growth was controlled with a gage. Mice were sacrificed when the tumor reached a volume greater than 4 cm^3. Kaplan-Meier plot of mice survival for each immunogen is depicted.

[9] = system: IFNγ-producing cells in response to the SIINFEKL peptide; experiment: ELISPOT of IFNγ-producing cells specific for SIINFEKL after immunization; type: in vivo, C57BL/6 mice; details: 5 nmoles peptide plus 50 μg poly I:C
Method: C57BL6 mice were intravenously immunized intravenously with 5 nmoles of the indicated peptides in combination with 50 μg of the TLR3 ligand poly I:C. In some cases, the peptides were immunized in the presence of TLR2 (peptidoglycan), TLR4 (LPS or the EDA protein) or TLR9 (CpG) ligand. Seven days after the immunization, the mice were intravenously injected with a mixture of 5×10^6 splenocytes, half of which had been previously labeled with a dose of 0.25 μM C and the other half with 2.5 uM CFSE and the SIINFEKL peptide (10 μg/ml). On the following day, the mice were sacrificed and the splenocytes were analyzed by flow cytometry to quantify the number of cells with high CFSE labeling with respect to the cells with low CFSE labeling. Thus, the percentage of cell lysis of the cells incubated with the cytotoxic SIINFEKL peptide can be calculated in an experiment called in vivo killing.
For the analysis of IFNγ-producing cells specific for SIINFEKL and induced in vivo by the immunizations, ELISPOT experiments were carried out using a BD-pharmingen kit (San Diego, Calif.) and according to the instructions of the manufacturer. Briefly, the plates (Multiscreen HTS, Millipore, Bedford, Mass.) incubated overnight with the anti-IFNγ antibody were blocked for 2 hours with HL-1 medium (Biowhittaker, Verviers, Belgium) containing 10% horse serum. Thus, 5×10^5 splenocytes were incubated in triplicate in the absence or in the presence of the antigens at 37° C. and 5% CO2. On the following day, the plates were washed with PBS and incubated with biotinylated anti-IFNγ antibody (2 mg/ml). After two hours, the plates were washed and incubated with a 1/100 dilution of streptavidin-peroxidase. One hour later, the wells were washed and developed using the AEC substrate set (BD-Pharmingen). The colorimetric reaction was stopped with distilled water and the number of spots was quantified using an ELISPOT automatic reader (CTL, Aalen, Germany).
For the analysis of IFNγ-producing cells in the presence of SIINFEKL and induced in vivo by the immunizations, ELISPOT experiments were carried out using a BD-pharmingen kit (San Diego, Calif.) and according to the instructions of the manufacturer, in the same manner as in Example 3.

EG7OVA tumor cells [10] = experiment: Protection against the challenge with EG7OVA tumor cells after immunization; type: in vivo, C57BL/6 mice; details: 5 nmoles peptide with poly I:C
Method: as §3, with “Seven days after the immunization, the mice were subcutaneously injected with 5×10^5 or with 5×10^7 EG7OVA cells.” left out

CVNGVCWTV [Peptide 1073, reference compound]
IFNγ producing cells specific for peptide 1073 (ELISPOT) [1]: not found | CTL activity against peptide 1073 (in vivo killing) [2]: not found

MAADIISTIGDLVKWIIDTVNKFKK [γMod]
expression of CD54 on dendritic cells [3]: promotes the expression | expression of the IAb molecule on dendritic cells [3]: promotes the expression | expression of messenger RNA for IL-12 (p40) [4]: capable of increasing the expression | expression of messenger RNA for TNF-alpha [4]: capable of increasing the expression

MAADIISTIGDLVKWIIDTVNKFKKCVNGVCWTV [γMod-1073]
IFNγ producing cells specific for peptide 1073 (ELISPOT) [1]: high numbers of IFNγ producing cells | CTL activity against peptide 1073 (in vivo killing) [2]: high levels of CTL activity

MADVIAKIVEIVKGLIDQFTQK (Staphylococcus epidermidis RP62A) [αMod]
expression of CD54 on dendritic cells [3]: activates the expression | expression of CD86 on dendritic cells [3]: activates the expression | expression of the IAb molecule on dendritic cells [3]: activates the expression | expression of messenger RNA for IL-12 (p40) [4]: capable of increasing the expression | expression of messenger RNA for TNF-alpha [4]: capable of increasing the expression

MADVIAKIVEIVKGLIDQFTQKCVNGVCWTV [αMod-1073]
IFNγ producing cells specific for peptide 1073 (ELISPOT) [1]: strong T cell immune responses | CTL activity against peptide 1073 (in vivo killing) [2]: strong T cell immune responses

MSIVSTIIEVVKTIVDIVKKFKKCVNGVCWTV [δMod-1073]
IFNγ producing cells specific for peptide 1073 (ELISPOT) [1]: high numbers of IFNγ producing cells | CTL activity against peptide 1073 (in vivo killing) [2]: high levels of CTL activity

RAHYNIVTF [E7(49-57), reference compound]
number of tumor-free (cured) mice relative to the total number of mice [5]: 4 of 11

SIINFEKL [reference compound]
proliferation of OT-1 T lymphocytes stimulated by peptide-incubated dendritic cells [6]: proliferate better | cells with lysis capacity against SIINFEKL (in vivo killing) ([7]; 60 days after immunization): not capable of inducing | specific cytotoxic activity against SIINFEKL (in vivo killing) ([7]; seven days after immunization): not capable of activating these responses | reduction of the bright fluorescence of CFSE γMod-SIINFEKL on splenocytes by unlabeled peptide (mouse splenocytes): did not affect this signal | mice rejecting the established tumor (EG7OVA tumor cells [8]): 0% | IFNγ-producing cells in response to SIINFEKL (ELISPOT) ([9]; 60 days after immunization): not capable of inducing | IFNγ-producing cells in response to SIINFEKL (ELISPOT) ([9]; seven days after immunization): not capable of activating these responses | protection from tumor growth after EG7OVA challenge (EG7OVA tumor cells [10]; 5×10^5 EG7OVA cells s.c. seven days after immunization (FIG. 5A)): developed tumors | protection from tumor growth after EG7OVA challenge (EG7OVA tumor cells [10]; 7×10^5 EG7OVA cells s.c. seven days after immunization (FIG. 5B)): developed tumors

polyinosinic-polycytidylic acid [poly I:C]
mice rejecting the established tumor (EG7OVA tumor cells [8]): 0%
